{"source": "patent US10265329B2", "about": "“Altering steroid metabolism for treatment of steroid-dependent disease” (THE CLEVELAND CLINIC FOUNDATION, priority 2015, dated 2019)", "key": {"[1]": {"assay": "Serum deoxycorticosterone at end of xenograft study", "format": "in vivo", "conditions": "serum from treated mice at the end of the xenograft study", "procedure": "Mouse serum collection, derivatization and extraction. […] Louis, Mo.). Steroids were extracted with methyl tert-butyl ether (Sigma Aldrich, St. Louis, Mo.), evaporated under a stream of nitrogen gas and reconstituted in methanol:water (50:50) prior to mass spectrometry analysis. Mouse serum analysis. Samples were analyzed on a Thermo TSQ Quantiva-Prelude SPLC system (Thermo Scientific, Waltham, Mass.) with Aria MX 2.1 and Tracefinder 3.2.368.22 software for instrument controls and quantitation. […] Steroids were ionized by electrospray ionization and in positive ion mode. […] Concentrations were determined using stable isotope dilution analysis."}, "VCaP xenografts": {"system": "VCaP xenografts", "assay": "VCaP xenograft progression in orchiectomized mice with DHEA pellet", "format": "in vivo", "conditions": "0.5 mmol/kg/d i.p.; compared to the Abi acetate group, P=0.011", "procedure": "Male NSG mice, 6 to 8 weeks of age were obtained from the Cleveland Clinic Biological Resources Unit facility. All mouse studies were conducted under a protocol approved by the Cleveland Clinic Institutional Animal Care and Use Committee. Sample size was determined based on our prior studies of steroidogenesis inhibition in xenograft models of CRPC. Chang et al., Proc Natl Acad Sci USA., 108:13728-13733 (2011). Criteria for progression were determined based on similar criteria that are utilized for clinical progression. Mice were surgically orchiectomized and implanted with a 5 mg 90-day sustained-release DHEA pellet (Innovative Research of America) to mimic CRPC in the context of human adrenal physiology. Two days later, 10^7 VCaP or C4-2 cells were injected subcutaneously with matrigel. Once tumors reached 300 mm^3 (length×width×height×0.52), mice were arbitrarily (but not strictly randomized) assigned to vehicle (n=9 or 10 mice for VCaP and C4-2 respectively), Abi acetate (n=10 mice for both cell lines), D4A (n=10 mice for both cell lines) or enzalutamide (n=11 for C4-2) treatment groups. […] Tumor volume was measured daily, and time to increase in tumor volume by 20% was determined. […] The significance of the difference between treatment groups was assessed by Kaplan-Meier survival analysis using a log-rank test in SigmaStat 3.5."}, "[2]": {"system": "PSA, TMPRSS2 and FKBP5 expression", "assay": "Inhibition of androgen-responsive gene expression (qPCR)", "format": "cell-based, human", "procedure": "Cells were starved with phenol red-free and serum free-medium for at least 48 h and treated with the indicated drugs and/or androgens. RNA was extracted with a GenElute Mammalian Total RNA miniprep kit (Sigma-Aldrich). cDNA was synthesized from 1 μg RNA in a reverse transcription reaction using the iScript cDNA Synthesis Kit (Bio-Rad, Hercules, Calif.). Quantitative PCR (qPCR) analysis was conducted in triplicate with primers for PSA, TMPRSS2, FKBP5, and RPLPO described previously (Chang et al., Cell, 154:1074-1084 (2013), with an ABI 7500 Real-Time PCR machine (Applied Biosystems) using iTaq Fast SYBR Green Supermix with ROX (Bio-Rad) in 96-well plates at a final reaction volume of 20 μL. Accurate quantitation of each mRNA was achieved by normalizing the sample values to RPLPO and to vehicle-treated cells."}}}
{"compound": "C[C@]12CCC(=O)C=C1CC[C@@H]1[C@@H]2CC[C@]2(C)C(c3cccnc3)=CC[C@@H]12", "note": "[Compound D4A, 17-(3-Pyridyl)androsta-4,16-dien-3-one]", "values": [{"measurement": "serum deoxycorticosterone", "setting": "[1]", "result": "no detectable increase"}, {"measurement": "time to tumor progression (>20% increase in tumor volume)", "setting": "VCaP xenografts", "result": "significantly delayed"}, {"measurement": "suppression of PSA, TMPRSS2 and FKBP5 expression compared to Abi", "setting": "[2]; induced by DHT, DHEA and R1881, LNCAP, LAPC4 and C4-2 cell lines", "result": "clearly better suppresses"}, {"measurement": "inhibition of DHT-induced endogenous PSA expression", "setting": "[2]; mutant and wild-type AR (LNCaP and LAPC4)", "result": "equivalent to enzalutamide"}]}
